According to patent US7199131B2, “Sulfonamide and sulfamide substituted imidazoquinolines” (3M Innovative Properties Company, priority 2001, dated 2007):
Where a name gives a salt, the structure may show the parent alone.

Key:
[1] = system: tumor necrosis factor (α); assay: Cytokine Induction in Human Cells: tumor necrosis factor (α) secreted by PBMCs, ELISA; assay type: cell-based; settings: PBMC, incubated 18 to 24 hours, lowest concentration found to induce tumor necrosis factor
Source text: (§1) An in vitro human blood cell system was used to assess cytokine induction by compounds of the invention. Activity is based on the measurement of interferon and tumor necrosis factor (α) (IFN and TNF, respectively) secreted into culture media as described by Testerman et. al. In “Cytokine Induction by the Immunomodulators Imiquimod and S-27609”, Journal of Leukocyte Biology, 58, 365–372 (September, 1995).
(§2) Whole blood is collected by venipuncture into EDTA vacutainer tubes from healthy human donors. Peripheral blood mononuclear cells (PBMCs) are separated from whole blood by density gradient centrifugation using Histopaque®-1077 (Sigma Chemicals, St. Louis, Mo.). The PBMCs are suspended at 3–4×10^6 cells/mL in RPMI 1640 medium containing 10% fetal bovine serum, 2 mM L-glutamine and 1% penicillin/streptomycin solution (RPMI complete). The PBMC suspension is added to 48 well flat bottom sterile tissue culture plates (Costar, Cambridge, Mass. or Becton Dickinson Labware, Lincoln Park, N.J.) containing an equal volume of RPMI complete media containing test compound.
(§3) The compounds are solubilized in dimethyl sulfoxide (DMSO). The DMSO concentration should not exceed a final concentration of 1% for addition to the culture wells.
(§4) The solution of test compound is added at 60 μM to the first well containing RPMI complete and serial (three fold or ten fold) dilutions are made. The PBMC suspension is then added to the wells in an equal volume, bringing the test compound concentrations to the desired range. The final concentration of PBMC suspension is 1.5–2×10^6 cells/mL. The plates are covered with sterile plastic lids, mixed gently and then incubated for 18 to 24 hours at 37° C. in a 5% carbon dioxide atmosphere.
(§5) Following incubation the plates are centrifuged for 5–10 minutes at 1000 rpm (˜200×g) at 4° C. The cell culture supernatant is removed with a sterile polypropylene pipette and transferred to sterile polypropylene tubes. Samples are maintained at −30 to −70° C. until analysis. The samples are analyzed for interferon (α) and tumor necrosis factor (α) by ELISA
Tumor necrosis factor (α) (TNF) concentration is determined using ELISA kits available from Genzyme, Cambridge, Mass.; R&D Systems, Minneapolis, Minn.; or Pharmingen, San Diego, Calif.
(§6) The table below lists the lowest concentration found to induce interferon and the lowest concentration found to induce tumor necrosis factor for each compound.

interferon (α) = assay: Cytokine Induction in Human Cells: interferon (α) secreted by PBMCs, ELISA; assay type: cell-based; settings: PBMC, incubated 18 to 24 hours, lowest concentration found to induce interferon
Source text: as §1, §2, §3, §4, §5
Interferon (α) concentration is determined by ELISA using a Human Multi-Species kit from PBL Biomedical Laboratories, New Brunswick, N.J.
as §6

| SMILES | melting point | minimal effective concentration [1] | minimal effective concentration (interferon (α)) |
| --- | --- | --- | --- |
| CCc1nc2c(N)nc3ccccc3c2n1CCCCNS(=O)(=O)c1ccccc1 [Example 232, N-[4-(4-amino-2-ethyl-1H-imidazo[4,5-c]quinolin-1-yl)butyl]benzenesulfonamide] | 180.6 to 182 °C | 1.11 µM | 0.12 µM |
| CCCc1nc2c(N)nc3ccccc3c2n1CCCCNS(=O)(=O)c1ccccc1 [Example 233, N-[4-(4-amino-2-propyl-1H-imidazo[4,5-c]quinolin-1-yl)butyl]benzenesulfonamide] | 158.8 to 160.8 °C | 1.11 µM | 0.37 µM |
| CCCCCCc1nc2c(N)nc3ccccc3c2n1CCCCNS(=O)(=O)c1ccccc1 [Example 234, N-[4-(4-amino-2-hexyl-1H-imidazo[4,5-c]quinolin-1-yl)butyl]benzenesulfonamide] | 84.8 to 85.4 °C | 1.11 µM | 1.11 µM |
| CCCc1nc2c(N)nc3ccccc3c2n1CCCCNS(C)(=O)=O [Example 235, N-[4-(4-amino-2-propyl-1H-imidazo[4,5-c]quinolin-1-yl)butyl]methanesulfonamide] | 186.5 to 187.9 °C | 1.11 µM | 0.04 µM |
| Cc1nc2c(N)nc3ccccc3c2n1CCCCNS(=O)(=O)c1ccccc1 [Example 237, N-[4-(4-amino-2-methyl-1H-imidazo[4,5-c]quinolin-1-yl)butyl]benzenesulfonamide] | 215.4 to 216 °C | 0.04 µM | 0.37 µM |
| Cc1nc2c(N)nc3ccccc3c2n1CCCCNS(C)(=O)=O [Example 238, N-[4-(4-amino-2-methyl-1H-imidazo[4,5-c]quinolin-1-yl)butyl]methanesulfonanide] | 229.4 to 230.5 °C | 0.37 µM | 0.04 µM |
| CCCCc1nc2c(N)nc3ccccc3c2n1CCCNS(C)(=O)=O [Example 239, N-[3-(4-amino-2-butyl-1H-imidazo[4,5-c]quinolin-1-yl)propyl]methanesulfonamide] | 239.2 to 240.8 °C | 1.11 µM | 0.01 µM |
| CCCCc1nc2c(N)nc3ccccc3c2n1CCCNS(=O)(=O)c1ccccc1 [Example 240, N-[3-(4-amino-2-butyl-1H-imidazo[4,5-c]quinolin-1-yl)propyl]benzenesulfonamide] | 210.5 to 212 °C | 3.33 µM | 0.37 µM |
| CCCCCCc1nc2c(N)nc3ccccc3c2n1CCCCNS(C)(=O)=O [Example 241, N-[4-(4-amino-2-hexyl-1H-imidazo[4,5-c]quinolin-1-yl)butyl]methanesulfonamide] | 170.2 to 171.1 °C | 1.11 µM | 0.12 µM |
| COCCc1nc2c(N)nc3ccccc3c2n1CCCCCCCCNS(=O)(=O)c1ccccc1 [Example 242, N-{8-[4-amino-2-(2-methoxyethyl)-1H-imidazo[4,5-c]quinolin-1-yl]octyl}benzenesulfonamide] | 146 to 149 °C | 0.01 µM | 0.01 µM |
| COCCc1nc2c(N)nc3ccccc3c2n1CCCCCCCCNS(C)(=O)=O [Example 243, N-{8-[4-amino-2-(2-methoxyethyl)-1H-imidazo[4,5-c]quinolin-1-yl]octyl}methanesulfonamide] | 109 to 110 °C | 0.01 µM | 0.01 µM |
| CCCCc1nc2c(N)nc3ccccc3c2n1CCCCCCCCNS(C)(=O)=O [Example 244, N-[8-(4-amino-2-butyl-1H-imidazo[4,5-c]quinolin-1-yl)octyl]methanesulfonamide] | 121 to 124 °C | 0.01 µM | 0.01 µM |
| CCCCc1nc2c(N)nc3ccccc3c2n1CCCNS(=O)(=O)c1cccc2c(N(C)C)cccc12 [Example 245, N-[3-(4-amino-2-butyl-1H-imidazo[4,5-c]quinolin-1-yl)propyl]-5-(dimethylamino)naphthalene-1-sulfonamide] | 216.5 to 217.5 °C | > 30 µM | 3.33 µM |
| CCCCc1nc2c(N)nc3ccccc3c2n1CCCNS(=O)(=O)c1ccc(C)cc1 [Example 246, N-[3-(4-amino-2-butyl-1H-imidazo[4,5-c]quinolin-1-yl)propyl]-4-methylbenzenesulfonamide] | 197 to 198.5 °C | 3.33 µM | 1.11 µM |
| COCCc1nc2c(N)nc3ccccc3c2n1CCCNS(C)(=O)=O [Example 247, N-{3-[4-amino-2-(2-methoxyethyl)-1H-imidazo[4,5-c]quinolin-1-yl]propyl}methanesulfonamide] | 193 to 194 °C | 0.01 µM | 0.01 µM |
| CCCCc1nc2c(N)nc3ccccc3c2n1CCCCCCCCNS(=O)(=O)c1ccccc1 [Example 248, N-[8-(4-amino-2-butyl-1H-imidazo[4,5-c]quinolin-1-yl)octyl]benzenesulfonamide] | 143 to 144 °C | 0.01 µM | 0.12 µM |
| COCCc1nc2c(N)nc3ccccc3c2n1CCCNS(=O)(=O)c1ccccc1 [Example 249, N-(3-[4-amino-2-(2-methoxyethyl)-1H-imidazo[4,5-c]quinolin-1-yl]propyl)benzenesulfonamide] | 149 to 151 °C | 1.11 µM | 0.01 µM |
| CS(=O)(=O)NCCCCCCCCn1cnc2c(N)nc3ccccc3c21 [Example 252, N-[8-(4-amino-1H-imidazo[4,5-c]quinolin-1-yl)octyl]methanesulfonamide] | 153 to 155 °C | 1.11 µM | 0.37 µM |
| COCCc1nc2c(N)nc3ccccc3c2n1CCCNS(=O)(=O)c1ccc(C)cc1 [Example 253, N-{3-[4-amino-2-(2-methoxyethyl)-1H-imidazo[4,5-c]quinolin-1-yl]propyl}-4-methylbenzenesulfonamide] | 189 to 191 °C | 0.12 µM | 0.04 µM |
| CCCCCc1nc2c(N)nc3c(c2n1CCCCNS(C)(=O)=O)CCCC3 [Example 254, N-[4-(4-amino-2-pentyl-6,7,8,9-tetrahydro-1H-imidazo[4,5-c]quinolin-1-yl)butyl]methanesulfonamide] | 167 to 167.8 °C | 1.11 µM | 0.01 µM |
| CCOCc1nc2c(N)nc3ccccc3c2n1CCCNS(C)(=O)=O [Example 255, N-{3-[4-amino-2-(ethoxymethyl)-1H-imidazo[4,5-c]quinolin-1-yl]propyl}methanesulfonamide] | 208.2 to 209.6 °C | 3.33 µM | 0.12 µM |
| COCCc1nc2c(N)nc3ccccc3c2n1CC(C)(C)CNS(C)(=O)=O [Example 256, N-{3-[4-amino-2-(2-methoxyethyl)-1H-imidazo[4,5-c]quinolin-1-yl]-2,2-dimethylpropyl}methanesulfonamide] | 204 to 206 °C | 0.04 µM | 0.01 µM |
| COCCc1nc2c(N)nc3ccccc3c2n1CCCNS(=O)(=O)c1cccc2c(N(C)C)cccc12 [Example 257, N-{3-[4-amino-2-(2-methoxyethyl)-1H-imidazo[4,5-c]quinolin-1-yl]propyl}-5-(dimethylamino)naphthalene-1-sulfonamide] | 210 to 215 °C | 3.33 µM | 1.11 µM |
| Cc1nc2c(N)nc3ccccc3c2n1CCCNS(C)(=O)=O [Example 258, N-[3-(4-amino-2-methyl-1H-imidazo[4,5-c]quinolin-1-yl)propyl]methanesulfonamide] | 236 to 238 °C | 10 µM | 0.37 µM |
| Cc1nc2c(N)nc3c(c2n1CCCCNS(C)(=O)=O)CCCC3 [Example 263, N-[4-(4-amino-2-methyl-6,7,8,9-tetrahydro-1H-imidazo[4,5-c]quinolin-1-yl)butyl]methanesulfonamide hydrochloride] |  | > 30 µM | 0.12 µM |
